Results as given in US10934283B2, “COMT inhibiting methods and compositions” (LIEBER INSTITUTE FOR BRAIN DEVELOPMENT, priority 2015, dated 2021).

Each molecule was assayed against T1, catechol-O-methyltransferase (COMT) (Homo sapiens, UniProt P21964) (assay: COMT inhibition assay (HTRF, production of SAH from SAM)). Details: table does not say MB-COMT or S-COMT.
T1 construct: M51A variant) was expressed in HEK 293F cells
T1 sequence (P21964 52-271 limits assumed): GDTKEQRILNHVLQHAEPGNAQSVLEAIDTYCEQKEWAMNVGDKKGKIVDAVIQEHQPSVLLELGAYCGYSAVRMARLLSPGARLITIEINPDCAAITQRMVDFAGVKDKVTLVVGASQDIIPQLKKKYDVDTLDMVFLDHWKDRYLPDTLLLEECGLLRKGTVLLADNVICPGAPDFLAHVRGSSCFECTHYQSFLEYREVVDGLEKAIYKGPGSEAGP
Type: biochemical
Procedure: The ability of compounds to inhibit the activity of catechol-O-methyltransferase (COMT) was determined by a homogenous time-resolved fluorescent (HTRF) assay (Lina et al, 2012; kit from CisBio, Codolet, France). This assay measures the production of S-adenosyl homocysteine (SAH) from the methyl donor S-adenosyl methionine. Recombinant human membrane bound COMT (MB-COMT; M51A variant) was expressed in HEK 293F cells using 293Fectin (Life Technologies, Gent, Belgium) and membranes prepared. The membranes were re-suspended in buffer (20 mM Tris/HCl pH 7; 10 mM glycerol; 2 mM MgCl2; 10 mM NaCl), aliquoted and stored at −80° C. Recombinant human soluble COMT(S-COMT), Val158 variant and a hexa-His tag on the N-terminus, was purified using Ni-NTA chromatography, the His tag removed and stored in buffer as above.
For the human MB-COMT assay, membranes (62 ng/well) were incubated with SAM (20 μM final, CisBio) and dopamine (1.5 μM final; Sigma H8502, Diegem, Belgium) in the presence or absence of varying concentrations (typically 10 concentrations ranging from 10 ? M to 0.1 nM) of compound for 40 min at 37° C. in 384-well microtiter plates (10 ? l per well final volume). The reaction was terminated by the addition of acylation buffer and the amount of SAH produced determined according to manufacturer's instructions. Specific inhibition as that inhibited by a high concentration of tolcapone and all experiments were validated using a control curve to tolcapone.
The human S-COMT assay was performed as above except that 0.15 ng enzyme/well was incubated with SAM ([…]) and dopamine (100 μM final) for 15 min at 37° C. and SAH production determined.
HTRF readings were performed using a Perkin Elmer Envision and results expressed as concentration of SAH produced using a standard curve. Results were analyzed using non-linear regression to the 4-parameter logistic equation and pIC50 (−log 10 concentration of drug which inhibits enzyme activity/SAH production by 50%) determined.

Row | Structure (SMILES) | Activity range (pIC50)
1 | CCc1ccc(CN2CCn3cc(O)c(=O)cc3[C@H]2c2ccccc2)cc1 (single isomer, unassigned) [Example 118] | +++ (three plus signs (+++) is associated with a pIC50 of above about 7)
2 | CCc1ccc(CN2CCn3cc(O)c(=O)cc3[C@@H]2c2ccccc2)cc1 (single isomer, unassigned) [Example 119] | +++ (three plus signs (+++) is associated with a pIC50 of above about 7)
3 | O=c1cc2n(cc1O)CCN(Cc1ccccc1)C2 [Example 1, 2-benzyl-7-hydroxy-1,2,3,4-tetrahydro-8H-pyrido[1,2-a]pyrazin-8-one] | ++ (two plus signs (++) is associated with a pIC50 of from about 6 to 7)
4 | O=c1cc2n(cc1O)CCN(Cc1ccc(C(F)(F)F)cc1)C2 [Example 2, 7-hydroxy-2-[4-(trifluoromethyl)benzyl]-1,2,3,4-tetrahydro-8H-pyrido[1,2-a]pyrazin-8-one] | ++ (two plus signs (++) is associated with a pIC50 of from about 6 to 7)
5 | O=c1cc2n(cc1O)CCN(Cc1ccc(F)cc1)C2 [Example 3, 2-[(4-fluorophenyl)methyl]-7-hydroxy-3,4-dihydro-1H-pyrido[1,2-a]pyrazin-8-one] | + (a single plus (+) is associated with a pIC50 of from about 4.5 to 6)
6 | O=c1cc2n(cc1O)CCN(CCn1nnc3ccccc31)C2 [Example 4, 2-[2-(benzotriazol-1-yl)ethyl]-7-hydroxy-3,4-dihydro-1H-pyrido[1,2-a]pyrazin-8-one] | + (a single plus (+) is associated with a pIC50 of from about 4.5 to 6)
7 | O=c1cc2n(cc1O)CCN(CCn1nc3ccccc3n1)C2 [Example 5, 2-[2-(benzotriazol-2-yl)ethyl]-7-hydroxy-3,4-dihydro-1H-pyrido[1,2-a]pyrazin-8-one] | + (a single plus (+) is associated with a pIC50 of from about 4.5 to 6)
8 | O=c1cc2n(cc1O)CCN(Cc1cccc(OC(F)(F)F)c1)C2 [Example 6, 7-hydroxy-2-[3-(trifluoromethoxy)benzyl]-1,2,3,4-tetrahydro-8H-pyrido[1,2-a]pyrazin-8-one] | +++ (three plus signs (+++) is associated with a pIC50 of above about 7)
9 | CC(C)(C)c1ccc(CN2CCn3cc(O)c(=O)cc3C2)cc1 [Example 7, 2-(4-tert-butylbenzyl)-7-hydroxy-1,2,3,4-tetrahydro-8H-pyrido[1,2-a]pyrazin-8-one] | +++ (three plus signs (+++) is associated with a pIC50 of above about 7)
10 | O=c1cc2n(cc1O)CCN(Cc1ccc(OC(F)(F)F)cc1)C2 [Example 8, 7-hydroxy-2-[4-(trifluoromethoxy)benzyl]-1,2,3,4-tetrahydro-8H-pyrido[1,2-a]pyrazin-8-one] | +++ (three plus signs (+++) is associated with a pIC50 of above about 7)
11 | Cc1ccc(CN2CCn3cc(O)c(=O)cc3C2)c(C)c1 [Example 9, 2-(2,4-dimethylbenzyl)-7-hydroxy-1,2,3,4-tetrahydro-8H-pyrido[1,2-a]pyrazin-8-one] | +++ (three plus signs (+++) is associated with a pIC50 of above about 7)
12 | CC(C)c1ccc(CN2CCn3cc(O)c(=O)cc3C2)cc1 [Example 10, 7-hydroxy-2-[4-(propan-2-yl)benzyl]-1,2,3,4-tetrahydro-8H-pyrido[1,2-a]pyrazin-8-one] | +++ (three plus signs (+++) is associated with a pIC50 of above about 7)
13 | O=c1cc2n(cc1O)CCN(Cc1ccccn1)C2 [Example 11, 7-hydroxy-2-(pyridin-2-ylmethyl)-1,2,3,4-tetrahydro-8H-pyrido[1,2-a]pyrazin-8-one] | ++ (two plus signs (++) is associated with a pIC50 of from about 6 to 7)
14 | O=c1cc2n(cc1O)CCN(Cc1ccc(-c3cccnc3)cc1)C2 [Example 12, 7-hydroxy-2-[4-(pyridin-3-yl)benzyl]-1,2,3,4-tetrahydro-8H-pyrido[1,2-a]pyrazin-8-one] | ++ (two plus signs (++) is associated with a pIC50 of from about 6 to 7)
